The values below come from patent US8192753B2, “pH-sensitive cationic lipids, and liposomes and nanocapsules containing the same” (Marina Biotech, Inc., priority 2002, dated 2012).

The nature of the data set: Determination of pKa values by titration in 0.5% TRITON-X 100. The following applies: lipid in 0.5% TRITON-X 100 in water, titrated with 20 mM NaOH from pH 3.0.

In general, pKa refers to the negative logarithm of the acid dissociation constant. Low readings indicate a stronger acid or weaker base, high ones a weaker acid or stronger base.

“4-(2-aminoethyl)morpholine-di-palmitoylglycerol succinate [#60]” came in with a pKa of 7.2.
